We go through one molecule from patent US9278086B2, “Combination therapy and uses thereof for treatment and prevention of parasitic infection and disease” (The Royal Institution for the Advancement of …, priority 2010, dated 2016).

A short description of the data set: in vivo. The arrangement: species or system mice. The settings on record: mouse. As for the experimental part: Cysteamine was detected in plasma by high performance liquid chromatography analysis with ultraviolet detection (Dias V C, et al. (1998) Clin Chem 44: 2199-2201). Briefly, blood was collected in EDTA/heparin-containing tubes, and plasma was obtained by centrifugation. Plasma thiols were reduced by treatment with Tris(2-carboxyethyl)phosphine (0.05M final concentration, 20 min. at 20° C.), and proteins were precipitated with tri-chloroacetic acid (TCA, 10% final concentration). Free thiols from the protein-free supernatant were derivatized using SBD-F ([…]), used at a final concentration of 0.2 mg/ml (1 hr at 60° C.) in 0.05 M borate buffer (pH 9.5). The mixture was then analyzed by HPLC: the mobile phase consisted of an aqueous solvent (0.1M acetic acid, 0.1 sodium acetate, pH 4.3) running on a Supelco™ LC-8 column, and elution of plasma analytes was with a 0-10% acetonitrile gradient. Detection of SBD-F derivatized analytes was by reading fluorescence at 515 nm (excitation at 385 nm). Cysteamine elution peaks were quantified (surface area), and plasma concentrations were calculated using a set of internal cysteamine standards processed at the same time. Area under the curve (AUCt0-tlast) was calculated using the trapezoid approximation method.
To gain more insight into the anti-malarial effect of cysteamine (Cys) in vivo, the pharmacokinetic characteristics (plasma level) of Cys administered through the sub-cutaneous (s.c.) and intra-peritoneal (i.p) routes was compared. […] To determine which pharmacokinetic parameter (AUC vs. Cmax) is important for efficacy against Plasmodium, the i.p. and s.c. routes of injection were compared in a continuous treatment regimen, starting one day prior to infection (10^5 pRBC of P. chabaudi, i.v.) and continuing daily for 7 days. Parasitemia was monitored on thin blood smears at days 5, 6 and 7 following infection (FIG. 1B). Treatment of infected animals with 120 mg/kg of Cys administered either s.c. or i.p. caused a highly significant (p<0.01) 50% reduction in parasitemia at day 5 and 6, relative to saline injected controls.
It was next determined whether Cys at equivalent dosing to that used in the clinical treatment of nephropathic cystinosis in humans has an effect on the course and severity of P. chabaudi infection in mice. In cystinosis patients, Cys is given orally as Cys bitartrate (Cystagon®). […] The efficacy of different regimens of 50 mg/kg Cys s.c. (number of injections, interval between injections) on replication of P. chabaudi in vivo was evaluated. P. chabaudi-infected mice were treated daily, starting at day −1 and continuing to day 10, with either 1×150 mg/kg, 3×50 mg/kg given at 2 hr intervals, 4×50 mg/kg given at 2 hr intervals or 3×50 mg/kg given at 1 hr intervals of Cys, and blood parasitemia was monitored at days 5, 6 and 7 (FIG. 2B).

The AUC is the area under the concentration-time curve, a measure of exposure. Low values mean low exposure, high ones high exposure. The term Cmax denotes the maximum level reached in the sampled fluid or tissue. The Tmax is the time from dosing to the highest level.

Turning to `NCCS` [Cysteamine], for the setting “ip, 120 mg/kg”, the AUC was 405 µM·h, the Cmax was determined as 665 µM and the Tmax was less than 5 min. Where the note is “sc, 50 mg/kg”, the AUC was 47.4 µM·h and the Cmax is roughly 80 µM. Further, under “sc, 120 mg/kg”, the AUC was 255 µM·h, the Cmax came to 250 µM and the Tmax was 30 min.
